BindingDB's records for doi:10.1021/jm00126a020 (Sankyo, 1989)
pIC50: −log10 of the molar value.

Tests used:
[1] = target: T1, Thromboxane-A synthase (Homo sapiens, UniProt P24557); experiment: ChEBML_209951
T1 sequence (P24557 whole entry): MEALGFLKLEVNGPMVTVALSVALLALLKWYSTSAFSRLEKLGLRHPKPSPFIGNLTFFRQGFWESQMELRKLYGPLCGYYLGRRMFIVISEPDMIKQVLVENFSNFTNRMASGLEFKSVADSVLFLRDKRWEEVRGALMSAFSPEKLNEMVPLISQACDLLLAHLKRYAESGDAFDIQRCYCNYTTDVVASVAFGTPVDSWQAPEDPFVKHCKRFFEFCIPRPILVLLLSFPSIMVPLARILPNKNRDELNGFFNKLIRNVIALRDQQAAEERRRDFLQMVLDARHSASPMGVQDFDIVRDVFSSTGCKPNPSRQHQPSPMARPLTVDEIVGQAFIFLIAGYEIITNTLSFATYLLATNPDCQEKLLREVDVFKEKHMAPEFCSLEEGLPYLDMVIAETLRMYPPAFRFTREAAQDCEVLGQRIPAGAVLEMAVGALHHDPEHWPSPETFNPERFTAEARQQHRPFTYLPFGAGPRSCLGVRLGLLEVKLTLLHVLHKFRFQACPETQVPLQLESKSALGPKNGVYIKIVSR
Text: Inhibition of thromboxane A2 synthetase

[2] = target: Thromboxane-A synthase (Oryctolagus cuniculus); experiment: Inhibition of platelet microsomal thromboxane A2 synthetase in rabbits

Row | pIC50 [1] | pIC50 [2] | SMILES
1 | 6.94 |  | O=C(O)C1=Cc2cc(C(c3ccccc3)n3ccnc3)sc2CC1 (stereo not drawn)
2 | 7.03 |  | O=C(O)C1=Cc2cc(Cn3ccnc3)sc2CC1
3 | 6.94 |  | O=C(O)c1cc2c(s1)CCC(Cn1ccnc1)C2 (stereo not drawn)
4 | < 5.00 |  | CC(C)(C)C(c1cc2c(s1)CCC(C(=O)O)=C2)n1ccnc1 (stereo not drawn)
5 | 5.99 |  | O=C(O)C1CCc2sc(CCn3ccnc3)cc2C1 (stereo not drawn)
6 | 5.73 |  | O=C(O)C1CCc2cc(CCn3ccnc3)sc2C1 (stereo not drawn)
7 | 7.00 |  | O=C(O)C1=Cc2cc(CCn3ccnc3)sc2CC1
8 | < 5.00 |  | O=C(O)C1=Cc2cc(C(C3CCCCC3)n3ccnc3)sc2CC1 (stereo not drawn)
9 | 7.07 |  | O=C(O)C1CCc2sc(Cn3ccnc3)cc2C1 (stereo not drawn)
10 | < 5.00 |  | O=C(O)C1=Cc2sc(CCn3ccnc3)cc2CC1
11 | 7.89 | 7.89 | O=C(O)C1=Cc2sc(Cn3ccnc3)cc2CC1 [2-Imidazol-1-ylmethyl-4,5-dihydro-benzo[b]thiophene-6-carboxylic acid]
12 | 5.57 |  | O=C(O)c1cc2c(s1)CC(Cn1ccnc1)CC2 (stereo not drawn)
